The text below walks through data of article PMC6141879, “How Does the Sweet Violet (Viola odorata L.) Fight Pathogens and Pests – Cyclotides as a Comprehensive Plant Host Defense System” (Frontiers in Plant Science, 2018).

Experiment [1] relates to seven fungal plant pathogens. The settings on record: 0 h.
For experiment [2], the system named is Colletotrichum utrechtense. The settings on record: 72 h.
Experiment [3] concerns Pseudomonas syringae pv. syringae strain Pss-762. Put plainly: Antibacterial MIC assay (CLSI), P. syringae pv. syringae. The following applies: M9 minimal medium with 0.4% glucose, 24 h, 28°C, 1.5 × 10^6 CFU ml^-1, OD600 < 0.1, triplicate, repeated three times. It counts as cell-based. How it is done: Cyclotides (cycloviolacin O2, O3, and O19) at concentrations of 0.78–100 μM were tested for activity against three bacterial plant pathogens: Pseudomonas syringae pv. syringae strain Pss-762 ([Taraszkiewicz et al., 2012]), Dickeya dadantii strain 3937 ([Glasner et al., 2011]) and Pectobacterium atrosepticum SCRI 1043 ([Bell et al., 2004]). Experiments were conducted according to the CLSI guidelines ([Clinical and Laboratory Standards Institute [CLSI], 2012]) using standard CA-MHB medium (BBL^TM Mueller-Hinton II Broth cation-adjusted, Becton Dickinson) or M9 minimal medium (per L: 6 g Na2HPO4, 3g KH2PO4, 0.5 g NaCl, 1 g NH4Cl) supplemented with glucose to a final concentration of 0.4%. Bacterial colonies from 24 h old cultures on TSA (trypticase soy agar, BioMerieux) plates were used to inoculate CA-MHB or M9 minimal medium and set up liquid cultures. Next, late log phase bacterial cultures were diluted to 0.5 McFarland standard, as determined by densimetry in the relevant medium (DensiMeter II, EMO, Brno). […] The minimal inhibitory concentration (MIC) of each cyclotide was determined as the lowest concentration required to inhibit bacterial growth, i.e., to reduce the culture’s OD600 to less than 0.1. OD600 values were measured with a microplate reader (EnVision^TM Multilabel Plate Reader, Perkin Elmer). […]

Another experiment concerns Botrytis cinerea. The settings on record: 48 h.
Experiment [4] in a line: Liposome leakage assay, fungal membrane model. The settings on record: read-out: EC50 of liposome permeabilization (carboxyfluorescein leakage); S. cerevisiae polar lipid extract:ergosterol 7:3 liposomes, Tris buffer, 45 min, % of Triton X-100 leakage, triplicate.
In experiment [5] the test system is Pectobacterium atrosepticum SCRI 1043. The following applies: 24 h.
For experiment [6], the system named is Dickeya dadantii strain 3937. The following applies: 24 h.
A further experiment relates to Alternaria alternata. The settings on record: 72 h.
The next experiment concerns Fusarium culmorum. The following applies: 48 h.
The next experiment concerns Mycosphaerella fragariae. The following applies: 48 h.
The subject of a further experiment is Fusarium graminearum. The following applies: 48 h.

Converted amounts (≈) assume the structure as drawn. Where a SMILES comes first, the peptide text is derived from it. Bridges are numbered along the chain shown (N, C = ends).

A word on the MIC: it is the lowest concentration that inhibits growth of the organism. Read a low MIC as inhibition by little substance. As a reminder, the EC50 is the midpoint of the concentration-response curve. `CC[C@H](C)[C@@H]1NC(=O)[C@H](C)NC(=O)[C@H](CO)NC(=O)[C@H]([C@@H](C)O)NC(=O)[C@H](CC(C)C)NC(=O)[C@@H]2CSSC[C@@H]3NC(=O)[C@H](C(C)C)NC(=O)[C@H](CCCCN)NC(=O)[C@H](CO)NC(=O)[C@H](CCCCN)NC(=O)[C@@H]4CSSC[C@H](NC(=O)[C@H](CO)NC(=O)[C@H](CCC(=O)O)NC(=O)CNC(=O)[C@H](CSSC[C@H](NC(=O)CNC1=O)C(=O)N[C@@H](CO)C(=O)N4)NC(=O)[C@@H]1CCCN1C(=O)[C@H]([C@@H](C)CC)NC(=O)CNC(=O)[C@H](CC(N)=O)NC(=O)[C@H](CCCNC(=N)N)NC(=O)[C@H](Cc1ccc(O)cc1)NC3=O)C(=O)N[C@@H](C(C)C)C(=O)N[C@@H](Cc1c[nH]c3ccccc13)C(=O)N[C@@H]([C@@H](C)CC)C(=O)N1CCC[C@H]1C(=O)N2` [cyO3] (cyclo(AIGCSCKSKVCYRNGIPCGESCVWIPCLTS); disulfide 4-18, 6-22, 11-27): the “MICs, range or bound over the tested fungi” value in experiment [1] lay within 0.8 to 12.5 µM. In addition, the minimal inhibitory concentration (MIC) worked out at 6.25 µM (≈ 19.7 µg/mL) in experiment [2]; 25 µM (≈ 78.9 µg/mL) in experiment [3]; 1.5 µM (≈ 4.73 µg/mL) against Botrytis cinerea; 100 µM (≈ 315 µg/mL) in experiment [5]; 75 µM (≈ 237 µg/mL) in experiment [6]; 0.8 µM (≈ 2.52 µg/mL) with Alternaria alternata. Also, the EC50 in [4] is 67 nM.
Consider `CC[C@H](C)[C@@H]1NC(=O)[C@H](C)NC(=O)[C@H](C)NC(=O)[C@H](CO)NC(=O)[C@H]([C@@H](C)CC)NC(=O)[C@@H]2CSSC[C@@H]3NC(=O)[C@H](C(C)C)NC(=O)[C@H](CCCCN)NC(=O)[C@H](CO)NC(=O)[C@H](CCCCN)NC(=O)[C@@H]4CSSC[C@H](NC(=O)[C@H](CO)NC(=O)[C@H](CCC(=O)O)NC(=O)CNC(=O)[C@H](CSSC[C@H](NC(=O)CNC1=O)C(=O)N[C@@H](CO)C(=O)N4)NC(=O)[C@@H]1CCCN1C(=O)[C@H]([C@@H](C)CC)NC(=O)CNC(=O)[C@H](CC(N)=O)NC(=O)[C@H](CCCNC(=N)N)NC(=O)[C@H](Cc1ccc(O)cc1)NC3=O)C(=O)N[C@@H](C(C)C)C(=O)N[C@@H](Cc1c[nH]c3ccccc13)C(=O)N[C@@H]([C@@H](C)CC)C(=O)N1CCC[C@H]1C(=O)N2` [cyO13] (cyclo(AAIGCSCKSKVCYRNGIPCGESCVWIPCIS); disulfide 5-19, 7-23, 12-28), for which the MIC in experiment [2] came to 6.25 µM (≈ 19.5 µg/mL); against Botrytis cinerea, 3 µM (≈ 9.37 µg/mL); against Alternaria alternata, 3 µM (≈ 9.37 µg/mL). The EC50 in experiment [4] is 130 nM.
Consider `CC[C@H](C)[C@@H]1NC(=O)[C@@H]2CSSC[C@@H]3NC(=O)[C@H](C(C)C)NC(=O)[C@H](CCCCN)NC(=O)[C@H](CO)NC(=O)[C@H](CCCCN)NC(=O)[C@@H]4CSSC[C@H](NC(=O)[C@H](CO)NC(=O)[C@H](CCC(=O)O)NC(=O)CNC(=O)[C@H](CSSC[C@H](NC(=O)CNC(=O)[C@H](C(C)C)NC(=O)[C@H](C(C)C)NC(=O)[C@H](CO)NC(=O)[C@H](CO)NC1=O)C(=O)N[C@@H](CO)C(=O)N4)NC(=O)[C@@H]1CCCN1C(=O)[C@H](CC(C)C)NC(=O)[C@H]([C@@H](C)O)NC(=O)CNC(=O)[C@H](CC(=O)O)NC(=O)[C@H](CCCCN)NC(=O)[C@H](Cc1ccc(O)cc1)NC3=O)C(=O)N[C@@H](C(C)C)C(=O)N[C@@H](Cc1c[nH]c3ccccc13)C(=O)N[C@@H]([C@@H](C)CC)C(=O)N1CCC[C@H]1C(=O)N2` [cyO19] (cyclo(CGESCVWIPCISSVVGCSCKSKVCYKDGTLP); disulfide 1-17, 5-19, 10-24), for which the minimal inhibitory concentration (MIC) in [2] was 6.25 µM (≈ 20.2 µg/mL); in the experiment with Fusarium culmorum, 1.5 µM (≈ 4.84 µg/mL); in experiment [3], 25 µM (≈ 80.7 µg/mL); in the experiment on Botrytis cinerea it was 1.5 µM (≈ 4.84 µg/mL); in the experiment on Mycosphaerella fragariae, >25 µM; in experiment [5] it was 100 µM (≈ 323 µg/mL). Also, the figures for the MIC (against Fusarium graminearum; in [6]; with Alternaria alternata) were 12.5 µM (≈ 40.4 µg/mL), 75 µM (≈ 242 µg/mL) and 1.5 µM (≈ 4.84 µg/mL), respectively. In addition, the EC50 in [4] worked out at 80 nM.
Consider `CC(C)C[C@@H]1NC(=O)CNC(=O)[C@H](CC(N)=O)NC(=O)[C@H](CCCNC(=N)N)NC(=O)[C@H]([C@@H](C)O)NC(=O)[C@@H]2CSSC[C@@H]3NC(=O)[C@H]([C@@H](C)O)NC(=O)CNC(=O)CNC(=O)[C@H](C(C)C)NC(=O)[C@@H]4CSSC[C@H](NC(=O)[C@H]([C@@H](C)O)NC(=O)[C@H](CSSC[C@H](NC(=O)[C@H](C(C)C)NC(=O)[C@@H]5CCCN5C1=O)C(=O)NCC(=O)N[C@@H](CCC(=O)O)C(=O)N[C@@H]([C@@H](C)O)C(=O)N4)NC(=O)CNC(=O)[C@@H]1CCCN1C(=O)[C@H]([C@@H](C)O)NC(=O)[C@H](CC(N)=O)NC3=O)C(=O)N[C@@H](CO)C(=O)N[C@@H](Cc1c[nH]c3ccccc13)C(=O)N1CCC[C@H]1C(=O)N[C@@H](C(C)C)C(=O)N2` [kB1, kalata B1], for which the MIC in the experiment on Fusarium culmorum was >80 µM; in the experiment with Botrytis cinerea, 80 µM (≈ 231 µg/mL); against Mycosphaerella fragariae it was >80 µM; with Fusarium graminearum, >80 µM.
On to `CC(C)C[C@@H]1NC(=O)CNC(=O)[C@H](CC(N)=O)NC(=O)[C@H](CCCNC(=N)N)NC(=O)[C@H]([C@@H](C)O)NC(=O)[C@@H]2CSSC[C@@H]3NC(=O)[C@H]([C@@H](C)O)NC(=O)CNC(=O)CNC(=O)[C@H](C(C)C)NC(=O)[C@@H]4CSSC[C@H](NC(=O)[C@H](CO)NC(=O)[C@H](CSSC[C@H](NC(=O)[C@H](C(C)C)NC(=O)[C@@H]5CCCN5C1=O)C(=O)NCC(=O)N[C@@H](CCC(=O)O)C(=O)N[C@@H]([C@@H](C)O)C(=O)N4)NC(=O)CNC(=O)[C@@H]1CCCN1C(=O)[C@H]([C@@H](C)O)NC(=O)[C@H](CC(N)=O)NC3=O)C(=O)N[C@@H](CO)C(=O)N[C@@H](Cc1c[nH]c3ccccc13)C(=O)N1CCC[C@H]1C(=O)N[C@@H](C(C)C)C(=O)N2` [varv A], for which the minimum inhibitory concentration (MIC) with Fusarium culmorum was 40 µM (≈ 115 µg/mL); with Botrytis cinerea it was 80 µM (≈ 230 µg/mL); against Mycosphaerella fragariae it was >80 µM; in the experiment with Fusarium graminearum, 40 µM (≈ 115 µg/mL).
